Data as given in patent US8329913B2, “Carbazole derivative, solvate thereof, or pharmaceutically acceptable salt thereof” (Zeria Pharmaceutical Co., Ltd., priority 2004, dated 2012).

Target: T1, human PPARα (Homo sapiens, UniProt Q07869)
T1 construct: 1.6 kb of DNA fragment including human PPARα gene was collected from the gel; expressed in transfected cells; host or cells: CV-1 cells, transient transfection with pCI-hPPARa, pCI-hRXRa and the reporter pGL3-PPRE3-TK
T1 sequence (Q07869 1-468): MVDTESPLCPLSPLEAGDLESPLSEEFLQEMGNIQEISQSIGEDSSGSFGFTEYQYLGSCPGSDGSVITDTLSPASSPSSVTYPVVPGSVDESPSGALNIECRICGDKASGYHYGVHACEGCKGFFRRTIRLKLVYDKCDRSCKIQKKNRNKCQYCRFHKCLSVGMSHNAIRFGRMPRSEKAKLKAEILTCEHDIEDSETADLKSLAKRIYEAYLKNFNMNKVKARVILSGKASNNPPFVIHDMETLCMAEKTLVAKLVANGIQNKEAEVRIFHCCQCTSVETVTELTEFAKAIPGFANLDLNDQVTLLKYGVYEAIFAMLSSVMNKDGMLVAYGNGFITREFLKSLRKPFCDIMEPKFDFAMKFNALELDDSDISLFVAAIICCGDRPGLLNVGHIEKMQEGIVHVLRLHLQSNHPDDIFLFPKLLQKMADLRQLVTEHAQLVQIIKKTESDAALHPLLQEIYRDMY
T1 sequence (P19793 1-462 partner): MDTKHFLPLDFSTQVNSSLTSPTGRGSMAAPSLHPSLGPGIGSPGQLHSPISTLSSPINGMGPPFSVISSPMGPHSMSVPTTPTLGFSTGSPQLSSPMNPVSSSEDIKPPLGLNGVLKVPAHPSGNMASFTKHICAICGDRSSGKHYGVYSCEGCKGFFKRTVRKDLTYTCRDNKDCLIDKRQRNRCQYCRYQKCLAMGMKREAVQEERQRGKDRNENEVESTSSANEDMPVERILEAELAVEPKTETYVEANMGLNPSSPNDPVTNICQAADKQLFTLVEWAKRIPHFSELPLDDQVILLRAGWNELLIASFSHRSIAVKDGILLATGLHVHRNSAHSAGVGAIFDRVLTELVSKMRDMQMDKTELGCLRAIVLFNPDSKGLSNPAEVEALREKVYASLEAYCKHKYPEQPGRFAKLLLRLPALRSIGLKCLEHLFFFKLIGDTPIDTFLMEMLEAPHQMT
Assay: Human PPARα agonist assay (luciferase reporter in transfected CV-1 cells)
Assay type: cell-based
Conditions: at 1 μM test compound alone; 100% = 1 μM stimulant (GW7647) only; CV-1 cells expressing human PPARα and RXRα
Experimental: CV-1 cells (96 well plate), where human PPARα and RXRα has expressed in the transient transfection of reporter plasmid (see reference 6a) were washed once with PBS (100 μL/well), and then supplemented with 100 μL/well of DMEM medium including 10% of fetal bovine serum to which test compounds at final concentrations of 10 nM, 30 nM, 100 nM, 300 nM, 1 μM, and 3 μM, as well as GW7647 (not limited to GW7647 shown as an example, but may be any PPARα agonist) at a final concentration of 1 nM as a stimulant were added, and incubated in a 5% CO2 incubator at 37° C. for 24 hours. After removing the medium, the CV-1 cells were washed once with PBS (100 μL/well), and supplemented with 60 μL/well of 1× Passive Lysis Buffer (manufactured by Promega Corporation). The CV-1 cells were incubated at room temperature for 30 minutes, stirred, and then by using Dual-Luciferase Reporter Assay System (manufactured by Promega Corporation), luciferase activities of firefly and renilla were measured using 1420 ARVO Multilabel Counter (manufactured by Wallac Oy). Also, the same experiments as that described above were respectively carried out for the cases where only the above-mentioned stimulant (10 nM, 100 nM, 1 μM) were used, where only the above-mentioned test compounds were used, or where neither was used (nonsupplemented), and luciferase activities of firefly and renilla were measured. Values corrected by dividing the firefly luciferase activities by the renilla luciferase activities were calculated as specific activities and used for evaluations. […]
Also, human PPARα agonist activities of the test compounds were evaluated by using a percentage (activity) where the specific activity when nonsupplemented is regarded as 0% and the specific activity in case only 1 μM stimulant was added is regarded as 100%, from the specific activity in case only the test compound is used.
CV-1 cells were cultured in DMEM medium (manufactured by Invitrogen Corporation) including 10% fetal bovine serum (manufactured by Dainippon Pharmaceutical Co., Ltd.) in 225T-Flask (manufactured by Corning Costar). The cells were detached by 0.5 g/L trypsin-0.2 g/L EDTA (ethylene diamine tetra-acetic acid) (manufactured by Invitrogen Corporation), and then suspended in the DMEM medium including 10% fetal bovine serum to a cell concentration of 2×10^5 cells/mL. Thereafter, the cells were seeded into 96 well plate at 2×10^4 cells/0.1 mL/well, incubated in the CO2 incubator at 37° C. overnight, and then the plasmids prepared by the above-mentioned reference 2a, reference 3a, and reference 4a were transfected into cells by using a lipofectamine reagent (manufactured by Invitrogen Corporation) according to the attached manual.
Namely, after CV-1 cells were cultured overnight, the cells were washed with PBS (100 μL/well). Thereafter the cells were incubated for 5 hours at 37° C./5% CO2 in the MEM medium (manufactured by Invitrogen Corporation) including 430 ng/mL of human PPARα expression plasmid (pCI-hPPARa) prepared by the reference 2a, 430 ng/mL of human RXRα expression plasmid (pCI-hRXRa) prepared by the reference 3a, and 140 ng/mL of the reporter plasmid (pGL3-PPRE3-TK) prepared by the reference 4a, 10 ng/mL of phRL-TK vector (manufactured by Promega Corporation) and 2 μL/mL of lipofectamine.

Structure (SMILES)	Human PPARα agonist activities, Activity % (at 1 μM) [%]
COc1cc(Cn2c3ccccc3c3c(OC(C)C(=O)O)cccc32)ccc1OCc1nc(-c2ccccc2)oc1C (racemic) [Example 4, (±)-2-{9-[3-methoxy-4-((5-methyl-2-phenyl-oxazole-4-yl)methoxy)-benzyl]-9H-carbazole-4-yloxy}propionic acid]	21
CCC(Oc1cccc2c1c1ccccc1n2Cc1ccc(OCc2nc(-c3ccccc3)oc2C)c(OC)c1)C(=O)O (racemic) [Example 5, (±)-2-{9-[3-methoxy-4-((5-methyl-2-phenyl-oxazole-4-yl)methoxy)-benzyl]-9H-carbazole-4-yloxy}butyric acid]	27
COc1cc(Cn2c3ccccc3c3c(OCCC(C)C(=O)O)cccc32)ccc1OCc1nc(-c2ccccc2)oc1C (racemic) [Example 27, (±)-4-{9-[3-methoxy-4-((5-methyl-2-phenyl-oxazole-4-yl)methoxy)-benzyl]-9H-carbazole-4-yloxy}-2-methyl-butyric acid]	23
COc1cc(Cn2c3ccccc3c3c(OC(C)C(=O)[O-])cccc32)ccc1OCc1nc(-c2ccccc2)oc1C.[Na+] (racemic) [Example 30]	35
COc1cc(Cn2c3ccccc3c3c(OCCC(C)C(=O)[O-])cccc32)ccc1OCc1nc(-c2ccccc2)oc1C.[Na+] (racemic) [Example 37]	20
COc1cc(Cn2c3ccccc3c3c(OC(C)(C)C(=O)O)cccc32)ccc1OCc1nc(-c2ccccc2)oc1C [Example 3, 2-{9-[3-methoxy-4-((5-methyl-2-phenyl-oxazole-4-yl)methoxy)-benzyl]-9H-carbazole-4-yloxy}-2-methyl-propionic acid]	43
COc1cc(Cn2c3ccccc3c3c(OC(C)(C)C(=O)O)cccc32)ccc1OCc1nc(-c2ccco2)oc1C [Example 7, 2-{9-[4-((2-(furan-2-yl)-5-methyl-oxazole-4-yl)methoxy)-3-methoxy-benzyl]-9H-carbazole-4-yloxy-}2-methyl-propionic acid]	39
COc1cc(Cn2c3ccccc3c3c(OC(C)(C)C(=O)O)cccc32)ccc1OCc1nc(-c2cccs2)oc1C [Example 8, 2-{9-[3-methoxy-4-((5-methyl-2-(thiophene-2-yl)-oxazole-4-yl)methoxy)-benzyl]-9H-carbazole-4-yloxy}-2-methyl-propionic acid]	60
COc1cc(Cn2c3ccccc3c3c(OC(C)(C)C(=O)O)cccc32)ccc1OCc1nc(-c2ccncc2)oc1C [Example 9, 2-{9-[3-methoxy-4-((5-methyl-2-(pyridine-4-yl)-oxazole-4-yl)methoxy)-benzyl]-9H-carbazole-4-yloxy}-2-methyl-propionic acid]	27
Cc1oc(-c2ccccc2)nc1COc1ccc(Cn2c3ccccc3c3c(OC(C)(C)C(=O)O)cccc32)cc1 [Example 13, 2-methyl-2-{9-[4-((5-methyl-2-phenyl-oxazole-4-yl)methoxy)-benzyl]-9H-carbazole-4-yloxy}propionic acid]	37
COc1cc(Cn2c3ccccc3c3c(OC(C)(C)C(=O)O)cccc32)ccc1OCc1nc(-c2ccccc2)sc1C [Example 15, 2-{9-[3-methoxy-4-((5-methyl-2-phenyl-thiazole-4-yl)methoxy)-benzyl]-9H-carbazole-4-yloxy}-2-methyl-propionic acid]	73
COc1cc(Cn2c3ccccc3c3c(OC(C)(C)C(=O)O)cccc32)ccc1OCc1sc(-c2ccccc2)nc1C [Example 16, 2-{9-[3-methoxy-4-((4-methyl-2-phenyl-thiazole-5-yl)methoxy)-benzyl]-9H-carbazole-4-yloxy}-2-methyl-propionic acid]	56
